# Patent US12233060B2, “Inhibitors of Ataxia-Telangiectasia Mutated and Rad3-related protein kinase (ATR) for use in methods of treating cancer” (THE INSTITUTE OF CANCER RESEARCH: ROYAL CANCER HOSPITAL, priority 2016, dated 2025)
# What was measured:
# Type in all cases: cell-based, human
# [1] = test system: HCT116 ARID1A isogenic cells and TOV21G cells; test: Anaphase bridge analysis; conditions: 0.5 uM, 8 hours
# Method: (§1) FIG. 5. ATRi effect on cell cycle progression, chromosomal instability, DNA damage and apoptosis. A. Barchart illustrating G2/M fraction in HCT116 ARID1A^+/+ and ARID1A^−/− cells synchronized in G1/early S phase by double thymidine block and released into fresh media containing DMSO or VX-970 (500 nM). The percentage of cells in G2/M was measured by FACS following PI staining. […] Cells were stained with DAPI. A minimum of 50 anaphases were scored in 3 biological replicate experiments. *p=0.023, Student's t-test. C. Bar chart illustrating frequency of anaphase bridges in TOV21G cells exposed to VX-970 (0.5 uM) or DMSO for 8 hours prior to fixation. Experiment performed as for (B). p=0.006 Student's t-test. D. Mitotic spread images from HCT116 ARID1A^+/+ and ARID1A^−/− cells following exposure to either DMSO or VX-970 (1 uM). Scale bar represents 20 um. E. Bar chart illustrating extent of chromosomal abnormalities in HCT116 ARID1A^+/+ and ARID1A^−/− cells exposed to VX-970 (1 uM). *p<0.05, Student's t-test. F. Western blot illustrating γH2AX in HCT116 ARID1A^+/+ and ARID1A^−/− cells exposed to VX-970 (0.5 uM) for the indicated time prior to cell lyses. G. Bar chart illustrating apoptotic fraction in cells exposed to increasing concentrations of VX-970 for 24 hours. Experiment as per FIG. 3I. H. Western blot illustrating PARP cleavage in HCT116 ARID1A^+/+ and ARID1A^−/− cells exposed to VX-970. […]
# [2] = test system: HCT116 ARID1A+/+ and ARID1A−/− cells; test: Mitotic spreads, chromosomal aberrations; conditions: VX-970 1 uM; p=0.0007 Student's t-test
# Method: as §1
# [3] = test system: HCT116 ARID1A+/+ and ARID1A−/− cells; test: Apoptosis assay (caspase-3/7 activity); conditions: 24 hours exposure; p<0.05 Student's t-test
# Method: FIG. 3. In vivo ARID1A/ATR synthetic lethality. A. Schematic of VX-970 therapy experiment in mice bearing established HCT116 ARID1A^+/+ and ARID1A^−/− xenografts. Cells were inoculated subcutaneously into nude mice and tumors allowed to establish for 10 days. Mice were then randomized to treatment regimens of either VX-970 (60 mg/kg, 4× weekly by oral gavage) or vehicle. Mice were then treated for a subsequent 40 days. Tumor volume was monitored twice weekly. B. Relative tumor volume plot from (A) showing efficacy of VX-970 and selectivity for ARID1A^−/− xenografts* p=0.024, ANOVA. C. Schematic of tumor incidence experiment in mice with non-established HCT116 ARID1A^+/+ and ARID1A^−/− xenografts. […] Tumor volume was monitored twice weekly and overall tumour incidence was assessed 40 days later. […] PARP-1, cleaved PARP-1 (85 kDa fragment) and tubulin were detected by western blot. […] Caspase3/7 activity was assessed using Caspase-Glo and total cellular viability was estimated using CellTitre-Glo. Luminescence ratios for Caspase-Glo (i.e. apoptotic cells) and CellTitre-Glo (ie viable cells) was determined for each dose and normalized to DMSO treated samples. *Student's t-test, p<0.05. […]
# FIG. 5. […] The percentage of cells in G2/M was measured by FACS following PI staining. […] A minimum of 50 anaphases were scored in 3 biological replicate experiments. *p=0.023, Student's t-test. […]
smiles,measurement,setting,value
"CNCc1ccc(-c2cc(-c3nc(-c4ccc(S(=O)(=O)C(C)C)cc4)cnc3N)on2)cc1 [VX-970, 5-[4-(Isopropylsulfonyl)phenyl]-3-(3-{4-[(methylamino)methyl]phenyl}-1,2-oxazol-5-yl)-2-pyrazinamine]",frequency of anaphase bridges,[1],increased level of anaphase bridges
same,frequency of chromosomal aberrations in ARID1A−/− cells,[2],significant enhancement in the frequency of chromosomal aberrations
same,"caspase-3/7 activation, ARID1A−/− vs ARID1A+/+",[3],higher caspase-3/7 activation
